# From patent publication US10294202B2, “Pyrrolidinones as herbicides” (FMC Corporation, priority 2013, dated 2019)
# Legend:
# deadnettle = test: Test C postemergence herbicide test; format: in vivo, Lamium amplexicaule
# Excerpt: At the same time, plants selected from these crop and weed species and also barley (winter barley, Hordeum vulgare), […]), chickweed (common chickweed, Stellaria media), deadnettle (henbit deadnettle, Lamium amplexicaule), and canarygrass (littleseed canarygrass, Phalaris minor) were planted in pots containing Redi-Earth® planting medium (Scotts Company, 14111 Scottslawn Road, Marysville, Ohio 43041) comprising spaghnum peat moss, vermiculite, wetting agent and starter nutrients and treated with postemergence applications of test chemicals formulated in the same manner. Plants ranged in height from 2 to 18 cm (1- to 4-leaf stage) for postemergence treatments. Treated plants and controls were maintained in a greenhouse for 13 to 15 days, after which time all species were compared to controls and visually evaluated. Plant response ratings, summarized in Table C, are based on a scale of 0 to 100 where 0 is no effect and 100 is complete control. A dash (-) response means no test result.
# corn (ZEAMD) = test: Test H preemergence mixture test (Colby); format: in vivo, Zea mays; settings: for Plant response rating, Obsd., ZEAMD: 21 d after treatment, scale 0 to 100; for ZEAMD Obsd.: applied alone, 21 d, mean of three replicates, scale 0-100
# [1] = system: transplanted japonica rice (ORYSA); test: Test G paddy mixture test (Colby); format: in vivo, Oryza sativa; settings: applied alone, 14 d; for ORYSA Obsd.: scale 0-100; for ORYSA Obsd. plant response rating (scale 0 to 100): flooded
# Procedure: Seeds of small-flower umbrella […], Cyperus difformis) and […], Heteranthera limosa) were sown on the soil surface in two separate quadrants of 11-cm (4-inch) tubs filled with steam pasteurized Tama soil. Simultaneously, plantings of […], Echinochloa crus-galli) and transplanted japonica rice (ORYSA, Oryza sativa) were established in separate “plug” flats. […] Herbicide application timing was targeted at the 2.0 to 2.5 leaf stage and the plants were treated with test chemicals formulated in a non-phytotoxic solvent. Treated plants and controls were maintained in a greenhouse for 14 d, after which time all species were compared to controls and visually evaluated. Plant response ratings are summarized in Tables G1 through G12, and are based on a scale of 0 to 100 where 0 is no effect and 100 is complete control. A dash (-) response means no test result. Colby's Equation was used to determine the herbicidal effects expected from the mixtures. Colby's Equation (Colby, S. R. “Calculating Synergistic and Antagonistic Responses of Herbicide Combinations,” Weeds, 15(1), pp 20-22 (1967)) calculates the expected additive effect of herbicidal mixtures and for two active ingredients is of the form: Pa+b=Pa+Pb-(PaPb/100) where • Pa+b is the percentage effect of the mixture expected from additive contribution of the individual components: • Pa is the observed percentage effect of the first active ingredient at the same use rate as in the mixture, and • Pb is the observed percentage effect of the second active ingredient at the same use rate as in the mixture. In the following Tables, rates are shown in grams of active ingredient per […]); “Obsd.” is the observed effect. “Exp.” is the expected effect calculated from Colby's Equation.
compound,measurement,setting,value
"O=C1NCC(c2ccc(F)c(F)c2)C1C(=O)Nc1cccc(F)c1F (stereo not drawn) [Compound 17, N-(2,3-difluorophenyl)-4-(3,4-difluorophenyl)-2-oxo-3-pyrrolidinecarboxamide]","Plant response rating, Deadnettle","deadnettle; 31 g ai/ha, scale 0 (no effect) to 100 (complete control)",0
same,"Plant response rating, Deadnettle","deadnettle; 62 g ai/ha, scale 0 to 100 (0 no effect, 100 complete control)",0
same,"Plant response rating, Deadnettle","deadnettle; 125 g ai/ha, scale 0 to 100 (0 no effect, 100 complete control)",0
same,"Plant response rating, Deadnettle","deadnettle; 250 g ai/ha, scale 0 to 100 (0 no effect, 100 complete control)",0
"O=C1NCC(c2ccc(C(F)(F)F)cc2)C1C(=O)Nc1cccc(F)c1F (stereo not drawn) [Compound 80, N-(2,3-difluorophenyl)-2-oxo-4-[4-(trifluoromethyl)phenyl]-3-pyrrolidinecarboxamide]","Plant response rating, Obsd., ZEAMD",corn (ZEAMD); Cmpd 80 alone 62 g a.i./ha,17
same,"Plant response rating, Obsd., ZEAMD",corn (ZEAMD); Cmpd 80 alone 125 g a.i./ha,13
same,ZEAMD Obsd.,corn (ZEAMD); 62 g a.i./ha,17
same,ZEAMD Obsd.,corn (ZEAMD); 125 g a.i./ha,13
"O=C1NC[C@H](c2cccc(C(F)(F)F)c2)[C@H]1C(=O)Nc1ccccc1F [Compound 204, (3R,4S)—N-(2-fluorophenyl)-2-oxo-4-[3-(trifluoromethyl)phenyl]-3-pyrrolidinecarboxamide]",ORYSA Obsd.,[1]; 125 g a.i./ha,0
same,ORYSA Obsd. plant response rating (scale 0 to 100),[1]; 125 g a.i./ha,0
same,ORYSA Obsd.,[1]; 500 g a.i./ha,0
same,ORYSA Obsd. plant response rating (scale 0 to 100),[1]; 500 g a.i./ha,0
